In patent US12390470B2, “1-methylxanthine-based bioactive composition and method of use thereof” (Ingenious Ingredients, LP, priority 2021, dated 2025):
Read-outs that look alike come from different tables or passages of the source.

Legend:
[1] = test system: participants; test: Anxiety by Visual Analog Scale; format: in vivo, human
Procedure: All supplements were orally ingested with 8 fluid ounces of cold tap water. Anxiety was measured by Visual Analog Scale (VAS) at baseline, 30, 60, 90, 120 and 180 minutes after ingestion.

[2] = test system: participants; test: Diastolic blood pressure, crossover vs caffeine; format: in vivo, human
Procedure: All supplements were orally ingested with 8 fluid ounces of cold tap water. Resting Heart Rate, Systolic and Diastolic Blood Pressure was measured at baseline, 30, 60, 90, 120 and 180 minutes after ingestion.

[3] = test system: participants; test: Systolic blood pressure, crossover vs caffeine; format: in vivo, human
Text: (§1) All supplements were orally ingested with 8 fluid ounces of cold tap water.

[4] = test system: participants; test: Resting heart rate, crossover vs caffeine; format: in vivo, human
Text: as §1

[5] = test system: participants; test: Respiratory quotient, placebo-controlled crossover; format: in vivo, human
Procedure: All supplements were orally ingested with 8 fluid ounces of cold tap water. The order of administration for all interventions was randomized using a random allocation software to ensure randomization and to avoid order effects. After ingestion, participants completed all assessments in an identical fashion 30, 60, 90, 120, and 180 minutes after ingestion of their assigned supplement. All study visits took place between 0600-1000 hours. At least 72 hours of rest will take place between each condition.
The lower the RQ, the more fat that is being oxidized for body energy needs. The closer to 1.0 the more carbohydrate is being burned for energy needs. If numbers are lower more fat is being oxidized.

[6] = test system: kidneys of Wistar rats; conditions: cited from earlier work
[7] = Person one, time 0, 200 mg oral
[8] = Person two, time 0, 200 mg oral

Cn1c(=O)c2c(ncn2C)n(C)c1=O [caffeine, reference compound]
Anxiety (VAS) MEAN (30-180) ([1]; Average): 74.4 | Anxiety (VAS) Mean Δ from 0 ([1]; Average, listed as CA): 65% | Anxiety (VAS) MEAN (30-180) ([1]; Person one): 74.6 | Anxiety (VAS) Mean Δ from 0 ([1]; Person one): +44.6 | Anxiety (Visual Analog Scale) ([1]; Person one, 30 min): 61 | Anxiety (Visual Analog Scale) ([1]; Person one, 60 min): 80 | Anxiety (Visual Analog Scale) ([1]; Person one, 90 min): 80 | Anxiety (Visual Analog Scale) ([1]; Person one, 120 min): 71 | Anxiety (Visual Analog Scale) ([1]; Person one, 180 min): 81 | Anxiety (Visual Analog Scale) [1, 7]: 30 | Anxiety (VAS) MEAN (30-180) ([1]; Person two): 74.2 | Anxiety (VAS) Mean Δ from 0 ([1]; Person two): +14.2 | Anxiety (Visual Analog Scale) ([1]; Person two, 30 min): 70 | Anxiety (Visual Analog Scale) ([1]; Person two, 60 min): 75 | Anxiety (Visual Analog Scale) ([1]; Person two, 90 min): 76 | Anxiety (Visual Analog Scale) ([1]; Person two, 120 min): 75 | Anxiety (Visual Analog Scale) ([1]; Person two, 180 min): 75 | Anxiety (Visual Analog Scale) [1, 8]: 60 | Diastolic Blood Pressure MEAN (30-180) ([2]; Average): 80.2 mm Hg | Diastolic Blood Pressure Mean Δ from 0 ([2]; Average, listed as CA): 20.3% | Diastolic Blood Pressure MEAN (30-180) ([2]; Person one): 78.6 mm Hg | Diastolic Blood Pressure Mean Δ from 0 ([2]; Person one): +18.6 mm Hg | Diastolic Blood Pressure ([2]; Person one, 30 min): 77 mm Hg | Diastolic Blood Pressure ([2]; Person one, 60 min): 80 mm Hg | Diastolic Blood Pressure ([2]; Person one, 90 min): 83 mm Hg | Diastolic Blood Pressure ([2]; Person one, 120 min): 77 mm Hg | Diastolic Blood Pressure ([2]; Person one, 180 min): 76 mm Hg | Diastolic Blood Pressure [2, 7]: 60 mm Hg | Diastolic Blood Pressure MEAN (30-180) ([2]; Person two): 81.8 mm Hg | Diastolic Blood Pressure Mean Δ from 0 ([2]; Person two): +8.8 mm Hg | Diastolic Blood Pressure ([2]; Person two, 30 min): 77 mm Hg | Diastolic Blood Pressure ([2]; Person two, 60 min): 96 mm Hg | Diastolic Blood Pressure ([2]; Person two, 90 min): 84 mm Hg | Diastolic Blood Pressure ([2]; Person two, 120 min): 75 mm Hg | Diastolic Blood Pressure ([2]; Person two, 180 min): 77 mm Hg | Diastolic Blood Pressure [2, 8]: 73 mm Hg | Systolic Blood Pressure MEAN (30-180) ([3]; Person one): 130.0 mm Hg | Systolic Blood Pressure MEAN (30-180) ([3]; Person two): 119.6 mm Hg | Resting Heart Rate Mean Δ from 0 ([4]; Average, listed as CA): 10% | Resting Heart Rate Mean Δ from 0 ([4]; Person one): +6.2 bpm | Resting Heart Rate ([4]; Person one, 30 min): 64 bpm | Resting Heart Rate ([4]; Person one, 60 min): 56 bpm | Resting Heart Rate ([4]; Person one, 90 min): 51 bpm | Resting Heart Rate ([4]; Person one, 120 min): 61 bpm | Resting Heart Rate ([4]; Person one, 180 min): 44 bpm | Resting Heart Rate [4, 7]: 49 bpm | Resting Heart Rate Mean Δ from 0 ([4]; Person two): +4.6 bpm | Resting Heart Rate ([4]; Person two, 30 min): 65 bpm | Resting Heart Rate ([4]; Person two, 60 min): 62 bpm | Resting Heart Rate ([4]; Person two, 90 min): 62 bpm | Resting Heart Rate ([4]; Person two, 120 min): 64 bpm | Resting Heart Rate ([4]; Person two, 180 min): 69 bpm | Resting Heart Rate [4, 8]: 59 bpm | Respiratory Quotient MEAN (30-180) ([5]; Average): 0.701 | Respiratory Quotient MEAN (30-180) ([5]; Person one): 0.704 | Respiratory Quotient ([5]; Person one, 30 min after ingestion): 0.70 | Respiratory Quotient ([5]; Person one, 60 min): 0.65 | Respiratory Quotient ([5]; Person one, 90 min): 0.70 | Respiratory Quotient ([5]; Person one, 120 min): 0.74 | Respiratory Quotient ([5]; Person one, 180 min): 0.73 | Respiratory Quotient [5, 7]: 0.68 | Respiratory Quotient MEAN (30-180) ([5]; Person two): 0.698 | Respiratory Quotient ([5]; Person two, 30 min): 0.70 | Respiratory Quotient ([5]; Person two, 60 min): 0.71 | Respiratory Quotient ([5]; Person two, 90 min): 0.71 | Respiratory Quotient ([5]; Person two, 120 min): 0.71 | Respiratory Quotient ([5]; Person two, 180 min): 0.66 | Respiratory Quotient [5, 8]: 0.76

Cn1c(=O)[nH]c(=O)c2[nH]cnc21 [3-methylxanthine]
serum urea ([6]; 100 mg kg^−1, after 16 days): Elevated values of serum urea were found | Tubular necrosis ([6]; 100 mg kg^−1 per day oral, after 16 days): Tubular necrosis was noticed | serum urea ([6]; 200 mg kg^−1, after 1 day): Elevated values of serum urea were found | serum creatinine ([6]; 200 mg kg^−1, after 8 days): Elevated values of serum creatinine were detected | Tubular necrosis ([6]; 200 mg kg^−1 per day oral, after 8 days): Tubular necrosis was noticed | overall renal outcome ([6]; 50-200 mg per kg per day, 1-16 days): dose- and time-related renal failure
